Results taken from patent US11325904B2, “Tropinol esters and related compounds to promote normal processing of APP” (BUCK INSTITUTE FOR RESEARCH ON AGING, priority 2011, dated 2022).

Test system: ectodomain of APP695 (MBP-eAPP230-624, eAPP230-624, TRX-eAPP575-624)
Experiment: Surface plasmon resonance (Biacore T100) binding to APP ectodomain fragments
Method: We used surface plasmon resonance to assess binding of compound 14 to the APP ectodomain (eAPP) fragments was done using a Biacore T100. Biotinylated TRX-eAPP575-624 and other eAPP fragments were immobilized onto strepavidin-coated sensor CM5 chip.
Surface plasmon resonance data was obtained with a Biacore T100 for 0-50 μM compound 14 flowed at 1 μl per min in 1% DMSO, 20 mM sodium phosphate, 125 mM sodium chloride pH 7.4 over a CM5 chip cross-linked with proteins containing fragments of the ectodomain of APP695. The three proteins were MBP-eAPP230-624—a fusion protein containing maltose binding protein and residues 230-624 of the ectodomain of APP (90-kDa), eAPP230-624—a protein that contains only residues 230-624 (45-kDa), and TRX-eAPP575-624—a fusion protein containing thioredoxin and residues 575-624 of the ectodomain (20-kDa). The proteins were produced as described in Libeu et al., (2011) J. Alzheimer's Dis., 25(3): 547-566. […] FIG. 11 compares the normalized response for the all three proteins. Comparison of the normalized curves between the proteins was done with PRISM (GraphPad Inc).

Cc1nnc(C(=O)O[C@H]2C[C@H]3CC[C@@H](C2)N3C)o1 [Compound 14]
binding to the ectodomain of APP (0-50 μM compound, 1% DMSO, 20 mM sodium phosphate, 125 mM sodium chloride pH 7.4, CM5 chip): has affinity for APP and can directly bind to the ectodomain of APP | normalized response curves compared between the eAPP fragments (MBP-eAPP230-624 vs eAPP230-624 vs TRX-eAPP575-624, comparison with PRISM): not significantly different
